The text below walks through data of US20050065189A1, “Thiazole derivatives as cannabinoid receptor modulators” (SOLVAY PHARMACEUTICALS B.V., priority 2003, published 2005).

The structures appear in SMILES notation. Like-named read-outs stand apart in the source and are kept apart here.

For experiment [1], the target named is T1, human cannabinoid CB1 receptor (Homo sapiens, UniProt P21554).
T1 construct: expressed in transfected cells; host or cells: Chinese hamster ovary (CHO) cells, membrane preparation
T1 sequence (P21554 whole entry): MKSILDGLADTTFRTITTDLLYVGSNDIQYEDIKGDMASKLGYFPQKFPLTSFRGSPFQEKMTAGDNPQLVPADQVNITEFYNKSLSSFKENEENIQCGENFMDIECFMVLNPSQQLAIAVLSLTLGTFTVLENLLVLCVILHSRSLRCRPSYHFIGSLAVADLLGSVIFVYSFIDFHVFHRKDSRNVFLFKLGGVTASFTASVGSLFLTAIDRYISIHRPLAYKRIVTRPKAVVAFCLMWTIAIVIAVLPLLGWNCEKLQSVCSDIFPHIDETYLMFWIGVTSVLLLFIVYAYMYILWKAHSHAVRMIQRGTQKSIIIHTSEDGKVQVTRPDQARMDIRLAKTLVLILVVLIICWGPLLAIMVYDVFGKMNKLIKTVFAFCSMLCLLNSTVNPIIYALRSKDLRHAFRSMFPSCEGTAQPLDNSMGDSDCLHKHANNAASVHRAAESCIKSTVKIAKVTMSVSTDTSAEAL
In words: In vitro affinity for human cannabinoid CB1 receptors ([3H]CP-55,940 radioligand binding, CHO cell membranes). As for the experimental part: In vitro Affinity for Human Cannabinoid CB1 Receptors
The affinity of the compounds of the invention for cannabinoid CB1 receptors can be determined using membrane preparations of Chinese hamster ovary (CHO) cells in which the human cannabinoid CB1 receptor is stably transfected in conjunction with [^3H]CP-55,940 as radioligand. After incubation of a freshly prepared cell membrane preparation with the [^3H]-ligand, with or without addition of compounds of the invention, separation of bound and free ligand is performed by filtration over glassfiber filters. Radioactivity on the filter is measured by liquid scintillation counting.

The target in experiment [2] is T2, human cannabinoid CB2 receptor (Homo sapiens, UniProt P34972).
T2 construct: expressed in transfected cells; host or cells: Chinese hamster ovary (CHO) cells, membrane preparation
T2 sequence (P34972 whole entry): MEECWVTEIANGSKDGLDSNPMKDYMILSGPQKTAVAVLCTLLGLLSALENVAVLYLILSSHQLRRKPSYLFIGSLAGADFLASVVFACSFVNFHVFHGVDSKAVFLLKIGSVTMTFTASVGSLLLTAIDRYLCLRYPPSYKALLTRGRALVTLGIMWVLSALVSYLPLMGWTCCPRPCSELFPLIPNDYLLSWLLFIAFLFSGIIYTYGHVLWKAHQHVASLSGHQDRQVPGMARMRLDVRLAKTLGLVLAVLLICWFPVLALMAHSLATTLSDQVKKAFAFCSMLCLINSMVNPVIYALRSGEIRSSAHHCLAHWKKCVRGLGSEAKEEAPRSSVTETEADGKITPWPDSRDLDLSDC
In words: In vitro affinity for human cannabinoid CB2 receptors ([3H]CP-55,940 radioligand binding, CHO cell membranes). As for the experimental part:
In Vitro Affinity for Human Cannabinoid CB2 Receptors
The affinity of the compounds of the invention for cannabinoid CB2 receptors can be determined using membrane preparations of Chinese hamster ovary (CHO) cells in which the human cannabinoid CB2 receptor is stably transfected in conjunction with [^3H]CP-55,940 as radioligand. After incubation of a freshly prepared cell membrane preparation with the [^3H]-ligand, with or without addition of compounds of the invention, separation of bound and free ligand is performed by filtration over glassfiber filters. Radioactivity on the filter is measured by liquid scintillation counting.

[3] abbreviates: membranes of CHO cells stably transfected with human CB1, [3H]CP-55,940 radioligand, read-out: Receptor affinity Human CB1 pKi-value (converted).

Take `CCCCCCC(=O)c1nc(-c2ccccc2Cl)c(-c2ccccc2)s1` [Example 4]: in experiment [1] (setting [3]), the Ki is 158 nM. On to `CCCCCc1nc(C(=O)NC23CC4CC(CC(C4)C2)C3)sc1-c1ccccc1` [Example 9, N-(adamant-1-yl)-4-(n-pentyl)-5-phenylthiazole-2-carboxamide], for which the Ki in experiment [2] (membranes of CHO cells stably transfected with human CB2, [3H]CP-55,940 radioligand, read-out: Receptor affinity Human CB2 pKi-value (converted)) is 7.94 nM; in experiment [1] (setting [3]) it was 15.8 nM. As to `CCCCC(=O)c1nc(-c2ccc(Cl)cc2Cl)c(-c2ccccc2)s1` [Example 1, 1-[4-(2,4-dichlorophenyl)-5-phenylthiazol-2-yl]pentan-1-one], the Ki in experiment [1] (setting [3]) is 251 nM. With `CCCCCc1nc(C(=O)NC2CCCCC2)sc1-c1ccccc1` [Example 11], the Ki was 20 nM in experiment [2] and 251 nM in experiment [1].
